The record followed here is patent US8093265B2, “Bicycloheteroaryl compounds as P2X7 modulators and uses thereof” (Renovis, Inc., priority 2007, dated 2012).

Data set [1] can be described thus: Pharmacokinetic evaluation following intravenous and oral administration in rats. Type of data set: in vivo, rat. The following applies: male Sprague-Dawley rats; PO 1 to 5 mg/kg vs IV 1 mg/kg; AUCinf(PO)/AUCinf(IV) dose-normalized. The protocol:
Pharmacokinetic Evaluation of Compounds Following Intravenous and Oral Administration in Rats.
Male Sprague-Dawley rats are acclimated for at least 24 hours prior to experiment initiation. During the acclimation period, all animals receive food and water ad libitum. However, food but not water is removed from the animals' cages at least 12 hours before initiation of the experiment. During the first 3 hours of experimentation, the animals receive only water ad libitum. At least three animals each are tested for intravenous and oral dosage. For intravenous formulation, compounds are dissolved (0.25 to 1 mg/mL) in a mixture of 3% dimethyl sulfoxide, 40% PEG 400 and the rest percentage of 40% Captisol in water (w/v). The animals are weighed before dosing. The determined body weight is used to calculate the dose volume for each animal. Dose volume (mL/kg)=1 mg/kg/formulation concentration (mg/mL)
In instances where the formulation concentrations are less than 0.5 mg/mL, the dosing volume is about 2 mL/kg.
For oral formulation, compounds of this invention are suspended (0.5 to 0.75 mg/mL) in a mixture of 5% of 10% Tween 80 in water (v/v) and 95% of 0.5% methyl cellulose in water (w/v). PO rats are typically dosed through oral gavage following the same dose volume formula as IV to achieve a dose level of 1 to 5 mg/kg. For IV dosing, blood samples are collected (using a pre-heparinized syringe) via the jugular vein catheter at 2, 5, 15, 30, 60, 120, 180, 300, 480, and 1440 minutes post dosing. For PO dosing blood samples are collected (using a pre-heparinized syringe) via the jugular vein catheter before dosing and at 5, 15, 30, 60, 120, 180, 300, 480, and 1440 minutes post dosing. About 250 uL of blood is obtained at each time point from the animal. Equal volumes of 0.9% normal saline are replaced to prevent dehydration. The whole blood samples are maintained on ice until centrifugation. Blood samples are then centrifuged at 14,000 rpm for 10 minutes at 4° C., and the upper plasma layer is then transferred into a clean vial and stored at −80° C. The resulting plasma samples are then analyzed by liquid chromatography-tandem mass spectrometry. Following the measurement of plasma samples and dosing solutions, plasma concentration-time curve is plotted. Plasma exposure is calculated as the area under the concentration-time curve extrapolated to time infinite (AUCinf). The AUCinf is averaged and the oral bioavailability (% F) for individual animal is calculated as: • AUCinf(PO)/AUCinf(IV), normalized to their respective dose levels.
The % F can be reported as the mean % F of all animals dosed orally with the compound of the invention at the specified level.
For the purpose of Table 3, the oral bioavailability of each compound is expressed as follows: […]

Data set [2] deals with T1, P2X7 receptor (Homo sapiens, UniProt Q99572).
T1 construct: host or cells: THP-1 cells differentiated with LPS and IFN-γ
T1 sequence (Q99572 1-595): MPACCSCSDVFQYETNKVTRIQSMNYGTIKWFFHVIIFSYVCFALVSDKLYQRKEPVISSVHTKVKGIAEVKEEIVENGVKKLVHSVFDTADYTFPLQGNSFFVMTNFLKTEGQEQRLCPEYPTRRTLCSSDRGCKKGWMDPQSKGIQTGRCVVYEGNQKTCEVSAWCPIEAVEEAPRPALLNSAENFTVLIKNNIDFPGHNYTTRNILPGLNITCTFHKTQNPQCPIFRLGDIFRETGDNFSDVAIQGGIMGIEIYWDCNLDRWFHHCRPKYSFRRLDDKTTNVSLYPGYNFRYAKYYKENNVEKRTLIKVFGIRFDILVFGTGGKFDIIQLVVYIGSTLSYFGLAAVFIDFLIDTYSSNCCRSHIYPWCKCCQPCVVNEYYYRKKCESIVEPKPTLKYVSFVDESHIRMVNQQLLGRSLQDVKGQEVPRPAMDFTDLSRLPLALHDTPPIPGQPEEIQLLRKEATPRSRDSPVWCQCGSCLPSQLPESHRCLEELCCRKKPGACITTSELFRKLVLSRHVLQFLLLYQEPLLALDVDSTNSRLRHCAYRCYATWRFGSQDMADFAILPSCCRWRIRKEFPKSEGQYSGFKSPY
The data set is described as follows: IL-1β release assay in differentiated THP-1 cells (Example 9). The class given is cell-based. The following applies: THP-1 cells differentiated with LPS and IFN-γ; 30 min pretreatment; BzATP 250 uM; IL-1β by ELISA. Put shortly: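 THP-1 cells differentiated 16 h with LPS and IFN-γ (100 ng/mL each), re-primed 2 h with LPS, then pretreated 30 min with compound before 250 uM BzATP for 45 min. Supernatant IL-1β measured by ELISA; background-adjusted % inhibition fitted to a four-parameter logistic for IC50.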

Data set [3] in a line: Half-life in human liver microsomes (HLM). The class given is in vitro ADME. The following applies: human liver microsomes 0.78 mg/mL, 1 μM compound, NADPH, 37° C.; for half-life at 1 μM: pH 7.4.
Protocol: Half-Life in Human Liver Microsomes (HLM)
Test compounds (1 μM) are incubated with 3.3 mM MgCl2 and 0.78 mg/mL HLM (HL101) in 100 mM potassium phosphate buffer (pH 7.4) at 37° C. on the 96-deep well plate. The reaction mixture is split into two groups, a non-P450 and a P450 group. NADPH is only added to the reaction mixture of the P450 group. An aliquot of samples of P450 group is collected at 0, 10, 30, and 60 min time point, where 0 min time point indicated the time when NADPH is added into the reaction mixture of P450 group. […] Collected aliquots are extracted with acetonitrile solution containing an internal standard. […] The compound concentration in supernatant is measured by LC/MS/MS system.
The half-life value is obtained by plotting the natural logarithm of the peak area ratio of compounds/internal standard versus time. The slope of the line of best fit through the points yields the rate of metabolism (k). This is converted to a half-life value using following equations: Half-life=ln 2/k
Data set [4] is described as follows: Plasma protein binding by equilibrium dialysis, human plasma. The class given is in vitro ADME. The following applies: pH 7.4, equilibrium dialysis 16 hr at 37° C., % Bound. The protocol:
The plasma protein binding of compounds of invention is measured in human and rat plasma, respectively. A stock solution of the tested compound is prepared in 1 mg/mL in DMSO solution. The stock solution is spiked into the blank plasma to get a final compound concentration at 1 μg/mL for testing. Equilibrium dialysis (The equilibrium dialyzer-96TM MWCO 5K Daltons, Harvard Apparatus) method is used for the testing purpose.
The compound spiked plasma (at […]) and phosphate buffer (0.1 M, pH 7.4), 200 μl each, are added into the opposite sides of the membrane in a 96-well equilibrium dialyzer, respectively. The dialyzer plate is covered and incubated overnight (16 hr) at 37° C. in the 8-plate rotor incubator (Big Shot III 8-plate rotor, Harvard Apparatus). Aliquots (100 μL) are taken from the plasma and the buffer compartments, respectively. The matrix effects are eliminated by adding the same volume of blank plasma into the samples from buffer compartments and adding the same volume of phosphate buffer into the samples from plasma compartments. The samples are extracted by using the regular (3:1) protein precipitation extraction procedure (acetonitrile with internal standard). The supernatants are taken for LC/MS/MS analysis. The percentage of plasma-protein binding can be calculated by using the following method: % Free=[Free Drug/Total Drug]*100=[(Peak Area)buffer/(Peak Area)plasma]*100 % Bound=100−% Free.
For the purpose of Table 4, the plasma protein binding of each compound is expressed as follows: […]
A general note: Equilibrium dialysis compares concentrations on both sides of a semipermeable membrane.

For the compound `Cc1ccc2c(=O)n([C@H]3CCNC3)ccc2c1NC(=O)Cc1ccc(C(F)(F)F)c(F)c1` [Compound 29, 2-(3-Fluoro-4-trifluoromethyl-phenyl)-N-((S)-6-methyl-1-oxo-2-pyrrolidin-3-yl-1,2-dihydro-isoquinolin-5-yl)-acetamide], in data set [1], the “Oral Bioavailability F (%)” value is “+ (0-25% F)”. For the same compound, in data set [2], the IC50 was found to be 23 nM. The compound further had a half-life at 1 μM in data set [3] of 210 min.
The corresponding values for `Cc1ccc2c(=O)n([C@H](C)C(N)=O)ccc2c1NC(=O)Cc1ccc(C(F)(F)F)c(F)c1` [Compound 51, (R)-2-{5-[2-(3-Fluoro-4-trifluoromethyl-phenyl)-acetylamino]-6-methyl-1-oxo-1H-isoquinolin-2-yl}-propionamide] are “+ (0-25% F)”, 0.4 nM and 78 min.
On to `Cc1ccc2c(=O)n([C@H](C)CO)ccc2c1C(=O)NCC1CCCCCC1` [Compound 49, 2-((R)-2-Hydroxy-1-methyl-ethyl)-6-methyl-1-oxo-1,2-dihydro-isoquinoline-5-carboxylic acid cycloheptylmethyl-amide], for which, in data set [1], the “Oral Bioavailability F (%)” value is given as “+ (0-25% F)”. For the same compound, the IC50 in data set [2] came to 0.7 nM. In data set [3], this compound had a half-life at 1 μM of 18 min.
Compound `O=C(Cc1ccc(C(F)(F)F)c(F)c1)Nc1c(Cl)ccc2c(=O)n(CCO)ccc12` [Compound 16, N-[6-Chloro-2-(2-hydroxy-ethyl)-1-oxo-1,2-dihydro-isoquinolin-5-yl]-2-(3-fluoro-4-trifluoromethyl-phenyl)-acetamide] came in with a fraction unbound at 16 hr, 1 μg/mL in data set [4] of less than 0.1. Also, the “Oral Bioavailability F (%)” value in data set [1] is “++++ (>75% F)”. Besides, in data set [2], the IC50 amounted to 6 nM. Also, in data set [3], the “Half Life” value came to 3.7 h.
Turning to `C[C@H](C(N)=O)n1ccc2c(NC(=O)Cc3cccc(C(F)(F)F)c3F)c(Cl)ccc2c1=O` [Compound 5, (R)-2-{6-Chloro-5-[2-(2-fluoro-3-trifluoromethyl-phenyl)-acetylamino]-1-oxo-1H-isoquinolin-2-yl}-propionamide], the “Oral Bioavailability F (%)” value in data set [1] is “+ (0-25% F)”. Besides, the IC50 in data set [2] amounted to 7 nM. Besides, in data set [3], the “Half Life” value came to 1.2 h.
Turning to `Cc1ccc2c(=O)n([C@H](C)CO)ccc2c1NC(=O)Cc1ccc(Cl)c(F)c1` [Compound 26, 2-(4-Chloro-3-fluoro-phenyl)-N-[2-((R)-2-hydroxy-1-methyl-ethyl)-6-methyl-1-oxo-1,2-dihydro-isoquinolin-5-yl]-acetamide], the fraction unbound at 16 hr, 1 μg/mL in data set [4] was 0.1 to 0.24. Besides, the “Oral Bioavailability F (%)” value in data set [1] is reported as “+++ (51-75% F)”. Moreover, the IC50 in data set [2] came to 5 nM. This compound also had a half-life at 1 μM in data set [3] of 96 min.
`O=C(Cc1ccc(F)c(C(F)(F)F)c1)Nc1c(Cl)ccc2c(=O)n(CCO)ccc12` [Compound 19, N-[6-Chloro-2-(2-hydroxy-ethyl)-1-oxo-1,2-dihydro-isoquinolin-5-yl]-2-(4-fluoro-3-trifluoromethyl-phenyl)-acetamide] registered a fraction unbound at 16 hr, 1 μg/mL in data set [4] of less than 0.1. The “Oral Bioavailability F (%)” value in data set [1] is reported as “+ (0-25% F)”. In addition, the IC50 in data set [2] was 5 nM. For the same compound, the “Half Life” value in data set [3] is 1.1 h.
The corresponding values for `C[C@H](CO)n1ccc2c(NC(=O)Cc3ccc(C(F)(F)F)c(F)c3)c(Cl)ccc2c1=O` [Compound 11, N-[6-Chloro-2-((R)-2-hydroxy-1-methyl-ethyl)-1-oxo-1,2-dihydro-isoquinolin-5-yl]-2-(3-fluoro-4-trifluoromethyl-phenyl)-acetamide] are less than 0.1, “++++ (>75% F)”, 5 nM and 1.6 h.
Regarding `C[C@H](CO)n1ccc2c(NC(=O)Cc3ccc(C(F)(F)F)cc3)c(Cl)ccc2c1=O` [Compound 10, N-[6-Chloro-2-((R)-2-hydroxy-1-methyl-ethyl)-1-oxo-1,2-dihydro-isoquinolin-5-yl]-2-(4-trifluoromethyl-phenyl)-acetamide], the fraction unbound at 16 hr, 1 μg/mL in data set [4] is less than 0.1. Besides, the “Oral Bioavailability F (%)” value in data set [1] is “++++ (>75% F)”. For the same compound, the IC50 in data set [2] came out at 10 nM. Moreover, in data set [3], the “Half Life” value worked out at 3.2 h.
As to `C[C@H](C(N)=O)n1ccc2c(NC(=O)CC34CC5CC(CC(C5)C3)C4)c(Cl)ccc2c1=O` [Compound 2], in data set [1], the “Oral Bioavailability F (%)” value is “+ (0-25% F)”. In data set [2], the IC50 was 0.1 nM. Moreover, the half-life at 1 μM in data set [3] is 48 min.

One may read the IC50 as the point on the concentration scale where inhibition reaches its midpoint. One may read the half-life as the time in which the quantity being followed falls by half. A higher half-life goes with slow decline. By fraction unbound is commonly meant the share of the substance not bound to proteins or other matrix. A low value points to little free substance.
